Measured values taken from publication PMC11124822, “Discovery and Anticancer Screening of Novel Oxindole-Based Derivative Bearing Pyridyl Group as Potent and Selective Dual FLT3/CDK2 Kinase Inhibitor” (Pharmaceuticals, 2024).

system: MOLT-4; test: NCI-60 antiproliferative screen (SRB); format: cell-based; settings: Homo sapiens; 10 µM single dose, 48 h; MOLT-4 (Leukemia); read-out: Growth inhibition (%)

Row | SMILES | inhibition at 10 µM [%]
1 | O=C1Nc2ccc(Cl)cc2C1=Cc1ccc(OCc2ccccc2)cc1 (mixture of isomers) [Compound 5c, (E/Z)-3-[4-(Benzyloxy)benzylidene]-5-chloroindolin-2-one] | 3.28

system: RPMI-8226; test: NCI-60 antiproliferative screen (SRB); format: cell-based, human; settings: Homo sapiens; 10 µM single dose, 48 h; RPMI-8226 (Leukemia); read-out: Growth inhibition (%)

Row | SMILES | inhibition at 10 µM [%]
2 | O=C1Nc2ccc(Cl)cc2C1=Cc1ccc(OCc2ccccc2)cc1 (mixture of isomers) [Compound 5c, (E/Z)-3-[4-(Benzyloxy)benzylidene]-5-chloroindolin-2-one] | -3.85

system: HOP-62; test: NCI-60 antiproliferative screen (SRB); format: cell-based, human; settings: Homo sapiens; 10 µM single dose, 48 h; HOP-62 (NSCLC); read-out: Growth inhibition (%)

Row | SMILES | inhibition at 10 µM [%]
3 | O=C1Nc2ccc(Cl)cc2C1=Cc1ccc(OCc2ccccc2)cc1 (mixture of isomers) [Compound 5c, (E/Z)-3-[4-(Benzyloxy)benzylidene]-5-chloroindolin-2-one] | 3.77

system: HCC-2998; test: NCI-60 antiproliferative screen (SRB); format: cell-based, human; settings: Homo sapiens; 10 µM single dose, 48 h; HCC-2998 (Colon); read-out: Growth inhibition (%)

Row | SMILES | inhibition at 10 µM [%]
4 | O=C1Nc2ccc(Cl)cc2C1=Cc1ccc(OCc2ccccc2)cc1 (mixture of isomers) [Compound 5c, (E/Z)-3-[4-(Benzyloxy)benzylidene]-5-chloroindolin-2-one] | -3.96

system: HCT-116; test: NCI-60 antiproliferative screen (SRB); format: cell-based, human; settings: Homo sapiens; 10 µM single dose, 48 h; HCT-116 (Colon); read-out: Growth inhibition (%)

Row | SMILES | inhibition at 10 µM [%]
5 | O=C1Nc2ccc(Cl)cc2C1=Cc1ccc(OCc2ccccc2)cc1 (mixture of isomers) [Compound 5c, (E/Z)-3-[4-(Benzyloxy)benzylidene]-5-chloroindolin-2-one] | 3.41

system: KM12; test: NCI-60 antiproliferative screen (SRB); format: cell-based, human; settings: Homo sapiens; 10 µM single dose, 48 h; KM12 (Colon); read-out: Growth inhibition (%)

Row | SMILES | inhibition at 10 µM [%]
6 | O=C1Nc2ccc(Cl)cc2C1=Cc1ccc(OCc2ccccc2)cc1 (mixture of isomers) [Compound 5c, (E/Z)-3-[4-(Benzyloxy)benzylidene]-5-chloroindolin-2-one] | -1.02

system: SW-620; test: NCI-60 antiproliferative screen (SRB); format: cell-based, human; settings: Homo sapiens; 10 µM single dose, 48 h; SW-620 (Colon); read-out: Growth inhibition (%)

Row | SMILES | inhibition at 10 µM [%]
7 | O=C1Nc2ccc(Cl)cc2C1=Cc1ccc(OCc2ccccc2)cc1 (mixture of isomers) [Compound 5c, (E/Z)-3-[4-(Benzyloxy)benzylidene]-5-chloroindolin-2-one] | 1.08

system: SF-295; test: NCI-60 antiproliferative screen (SRB); format: cell-based, human; settings: Homo sapiens; 10 µM single dose, 48 h; SF-295 (CNS); read-out: Growth inhibition (%)

Row | SMILES | inhibition at 10 µM [%]
8 | O=C1Nc2ccc(Cl)cc2C1=Cc1ccc(OCc2ccccc2)cc1 (mixture of isomers) [Compound 5c, (E/Z)-3-[4-(Benzyloxy)benzylidene]-5-chloroindolin-2-one] | -11.1

system: SF-539; test: NCI-60 antiproliferative screen (SRB); format: cell-based, human; settings: Homo sapiens; 10 µM single dose, 48 h; SF-539 (CNS); read-out: Growth inhibition (%)

Row | SMILES | inhibition at 10 µM [%]
9 | O=C1Nc2ccc(Cl)cc2C1=Cc1ccc(OCc2ccccc2)cc1 (mixture of isomers) [Compound 5c, (E/Z)-3-[4-(Benzyloxy)benzylidene]-5-chloroindolin-2-one] | 4.12

system: U251; test: NCI-60 antiproliferative screen (SRB); format: cell-based, human; settings: Homo sapiens, U-251; 10 µM single dose, 48 h; U251 (CNS); read-out: Growth inhibition (%)

Row | SMILES | inhibition at 10 µM [%]
10 | O=C1Nc2ccc(Cl)cc2C1=Cc1ccc(OCc2ccccc2)cc1 (mixture of isomers) [Compound 5c, (E/Z)-3-[4-(Benzyloxy)benzylidene]-5-chloroindolin-2-one] | -1.54

system: MALME-3M; test: NCI-60 antiproliferative screen (SRB); format: cell-based, human; settings: Homo sapiens; 10 µM single dose, 48 h; MALME-3M (Melanoma); read-out: Growth inhibition (%)

Row | SMILES | inhibition at 10 µM [%]
11 | O=C1Nc2ccc(Cl)cc2C1=Cc1ccc(OCc2ccccc2)cc1 (mixture of isomers) [Compound 5c, (E/Z)-3-[4-(Benzyloxy)benzylidene]-5-chloroindolin-2-one] | -13

system: M14; test: NCI-60 antiproliferative screen (SRB); format: cell-based, human; settings: Homo sapiens; 10 µM single dose, 48 h; M14 (Melanoma); read-out: Growth inhibition (%)

Row | SMILES | inhibition at 10 µM [%]
12 | O=C1Nc2ccc(Cl)cc2C1=Cc1ccc(OCc2ccccc2)cc1 (mixture of isomers) [Compound 5c, (E/Z)-3-[4-(Benzyloxy)benzylidene]-5-chloroindolin-2-one] | 7.34

system: SK-MEL-2; test: NCI-60 antiproliferative screen (SRB); format: cell-based, human; settings: Homo sapiens; 10 µM single dose, 48 h; SK-MEL-2 (Melanoma); read-out: Growth inhibition (%)

Row | SMILES | inhibition at 10 µM [%]
13 | O=C1Nc2ccc(Cl)cc2C1=Cc1ccc(OCc2ccccc2)cc1 (mixture of isomers) [Compound 5c, (E/Z)-3-[4-(Benzyloxy)benzylidene]-5-chloroindolin-2-one] | -0.35

system: SK-MEL-28; test: NCI-60 antiproliferative screen (SRB); format: cell-based, human; settings: Homo sapiens; 10 µM single dose, 48 h; SK-MEL-28 (Melanoma); read-out: Growth inhibition (%)

Row | SMILES | inhibition at 10 µM [%]
14 | O=C1Nc2ccc(Cl)cc2C1=Cc1ccc(OCc2ccccc2)cc1 (mixture of isomers) [Compound 5c, (E/Z)-3-[4-(Benzyloxy)benzylidene]-5-chloroindolin-2-one] | -8.75

system: UACC-257; test: NCI-60 antiproliferative screen (SRB); format: cell-based, human; settings: Homo sapiens; 10 µM single dose, 48 h; UACC-257 (Melanoma); read-out: Growth inhibition (%)

Row | SMILES | inhibition at 10 µM [%]
15 | O=C1Nc2ccc(Cl)cc2C1=Cc1ccc(OCc2ccccc2)cc1 (mixture of isomers) [Compound 5c, (E/Z)-3-[4-(Benzyloxy)benzylidene]-5-chloroindolin-2-one] | -6.58

system: OVCAR-5; test: NCI-60 antiproliferative screen (SRB); format: cell-based, human; settings: Homo sapiens; 10 µM single dose, 48 h; OVCAR-5 (Ovarian); read-out: Growth inhibition (%)

Row | SMILES | inhibition at 10 µM [%]
16 | O=C1Nc2ccc(Cl)cc2C1=Cc1ccc(OCc2ccccc2)cc1 (mixture of isomers) [Compound 5c, (E/Z)-3-[4-(Benzyloxy)benzylidene]-5-chloroindolin-2-one] | -2.92

system: OVCAR-8; test: NCI-60 antiproliferative screen (SRB); format: cell-based, human; settings: Homo sapiens; 10 µM single dose, 48 h; OVCAR-8 (Ovarian); read-out: Growth inhibition (%)

Row | SMILES | inhibition at 10 µM [%]
17 | O=C1Nc2ccc(Cl)cc2C1=Cc1ccc(OCc2ccccc2)cc1 (mixture of isomers) [Compound 5c, (E/Z)-3-[4-(Benzyloxy)benzylidene]-5-chloroindolin-2-one] | -0.47

system: NCI/ADR-RES; test: NCI-60 antiproliferative screen (SRB); format: cell-based, human; settings: Homo sapiens; 10 µM single dose, 48 h; NCI/ADR-RES (Ovarian); read-out: Growth inhibition (%)

Row | SMILES | inhibition at 10 µM [%]
18 | O=C1Nc2ccc(Cl)cc2C1=Cc1ccc(OCc2ccccc2)cc1 (mixture of isomers) [Compound 5c, (E/Z)-3-[4-(Benzyloxy)benzylidene]-5-chloroindolin-2-one] | 1.88

system: A498; test: NCI-60 antiproliferative screen (SRB); format: cell-based, human; settings: Homo sapiens; 10 µM single dose, 48 h; A498 (Renal); read-out: Growth inhibition (%)

Row | SMILES | inhibition at 10 µM [%]
19 | O=C1Nc2ccc(Cl)cc2C1=Cc1ccc(OCc2ccccc2)cc1 (mixture of isomers) [Compound 5c, (E/Z)-3-[4-(Benzyloxy)benzylidene]-5-chloroindolin-2-one] | -2.37

system: CAKI-1; test: NCI-60 antiproliferative screen (SRB); format: cell-based, human; settings: Homo sapiens; 10 µM single dose, 48 h; CAKI-1 (Renal); read-out: Growth inhibition (%)

Row | SMILES | inhibition at 10 µM [%]
20 | O=C1Nc2ccc(Cl)cc2C1=Cc1ccc(OCc2ccccc2)cc1 (mixture of isomers) [Compound 5c, (E/Z)-3-[4-(Benzyloxy)benzylidene]-5-chloroindolin-2-one] | 13.4

system: RXF 393; test: NCI-60 antiproliferative screen (SRB); format: cell-based, human; settings: Homo sapiens; 10 µM single dose, 48 h; RXF 393 (Renal); read-out: Growth inhibition (%)

Row | SMILES | inhibition at 10 µM [%]
21 | O=C1Nc2ccc(Cl)cc2C1=Cc1ccc(OCc2ccccc2)cc1 (mixture of isomers) [Compound 5c, (E/Z)-3-[4-(Benzyloxy)benzylidene]-5-chloroindolin-2-one] | -5.38

system: UO-31; test: NCI-60 antiproliferative screen (SRB); format: cell-based, human; settings: Homo sapiens; 10 µM single dose, 48 h; UO-31 (Renal); read-out: Growth inhibition (%)

Row | SMILES | inhibition at 10 µM [%]
22 | O=C1Nc2ccc(Cl)cc2C1=Cc1ccc(OCc2ccccc2)cc1 (mixture of isomers) [Compound 5c, (E/Z)-3-[4-(Benzyloxy)benzylidene]-5-chloroindolin-2-one] | 23.9

system: PC-3; test: NCI-60 antiproliferative screen (SRB); format: cell-based, human; settings: Homo sapiens; 10 µM single dose, 48 h; PC-3 (Prostate); read-out: Growth inhibition (%)

Row | SMILES | inhibition at 10 µM [%]
23 | O=C1Nc2ccc(Cl)cc2C1=Cc1ccc(OCc2ccccc2)cc1 (mixture of isomers) [Compound 5c, (E/Z)-3-[4-(Benzyloxy)benzylidene]-5-chloroindolin-2-one] | 12.9

system: DU-145; test: NCI-60 antiproliferative screen (SRB); format: cell-based, human; settings: Homo sapiens; 10 µM single dose, 48 h; DU-145 (Prostate); read-out: Growth inhibition (%)

Row | SMILES | inhibition at 10 µM [%]
24 | O=C1Nc2ccc(Cl)cc2C1=Cc1ccc(OCc2ccccc2)cc1 (mixture of isomers) [Compound 5c, (E/Z)-3-[4-(Benzyloxy)benzylidene]-5-chloroindolin-2-one] | -5.61

system: MCF7; test: NCI-60 antiproliferative screen (SRB); format: cell-based, human; settings: Homo sapiens; 10 µM single dose, 48 h; MCF7 (Breast); read-out: Growth inhibition (%)

Row | SMILES | inhibition at 10 µM [%]
25 | O=C1Nc2ccc(Cl)cc2C1=Cc1ccc(OCc2ccccc2)cc1 (mixture of isomers) [Compound 5c, (E/Z)-3-[4-(Benzyloxy)benzylidene]-5-chloroindolin-2-one] | 16

system: MDA-MB-231; test: NCI-60 antiproliferative screen (SRB); format: cell-based, human; settings: Homo sapiens; 10 µM single dose, 48 h; MDA-MB-231 (Breast); read-out: Growth inhibition (%)

Row | SMILES | inhibition at 10 µM [%]
26 | O=C1Nc2ccc(Cl)cc2C1=Cc1ccc(OCc2ccccc2)cc1 (mixture of isomers) [Compound 5c, (E/Z)-3-[4-(Benzyloxy)benzylidene]-5-chloroindolin-2-one] | -5.3

system: MDA-MB-468; test: NCI-60 antiproliferative screen (SRB); format: cell-based, human; settings: Homo sapiens; 10 µM single dose, 48 h; MDA-MB-468 (Breast); read-out: Growth inhibition (%)

Row | SMILES | inhibition at 10 µM [%]
27 | O=C1Nc2ccc(Cl)cc2C1=Cc1ccc(OCc2ccccc2)cc1 (mixture of isomers) [Compound 5c, (E/Z)-3-[4-(Benzyloxy)benzylidene]-5-chloroindolin-2-one] | -0.96

system: SR; test: NCI-60 antiproliferative screen (SRB); settings: Homo sapiens, 48 h, read-out: Growth inhibition (%)

Row | SMILES | inhibition at 10 µM [%]
28 | O=C1Nc2ccc(Cl)cc2C1=Cc1ccc(OCc2ccccc2)cc1 (mixture of isomers) [Compound 5c, (E/Z)-3-[4-(Benzyloxy)benzylidene]-5-chloroindolin-2-one] | -0.06

system: OVCAR-4; test: NCI-60 antiproliferative screen (SRB); settings: Homo sapiens, OVCAR-4, 48 h, read-out: Growth inhibition (%)

Row | SMILES | inhibition at 10 µM [%]
29 | O=C1Nc2ccc(Cl)cc2C1=Cc1ccc(OCc2ccccc2)cc1 (mixture of isomers) [Compound 5c, (E/Z)-3-[4-(Benzyloxy)benzylidene]-5-chloroindolin-2-one] | -7.18
